Test results reported in publication PMC6366416, “Synthesis and in vitro anticancer activity of certain novel 1-(2-methyl-6-arylpyridin-3-yl)-3-phenylureas as apoptosis-inducing agents” (Journal of Enzyme Inhibition and Medicinal Chemistry, 2019).

Legend:
Test in all cases: NCI one-dose SRB growth inhibition
Format in all cases: cell-based
786-0 = settings: Homo sapiens, Renal Cancer, 48 h, read-out: GI% 786-0
Method: (§1) The antitumor assay was performed according to the protocol of the Drug Evaluation Branch, NCI, Bethesda[24–26]. A 48 h drug exposure protocol was adopted, and sulforhodamine B (SRB) assay[27] was utilized to assess the cell growth and viability, as reported earlier[17]^,[28].
(§2) The structures of all the newly synthesized pyridines 5a–l were submitted to the National Cancer Institute (NCI) Developmental Therapeutic Program (www.dtp.nci.nih.gov). […] Nine different types of cancer were tested in this assay: colon, ovarian, prostate, leukemia, melanoma, CNS, renal, breast and lung cancers. A 48 h drug exposure protocol was adopted, and sulforhodamine B (SRB) assay[27] was utilized to assess the cell growth and viability.

A549/ATCC = settings: Homo sapiens, A549, 48 h, Non-Small Cell Lung Cancer, read-out: GI% A549/ATCC
Method: as §1, §2

BT-549 = settings: Homo sapiens, Breast Cancer, 48 h, read-out: GI% BT-549
Method: as §1, §2

CCRF-CEM = settings: Homo sapiens, Leukemia, 48 h, read-out: GI% CCRF-CEM
Method: as §1, §2

COLO 205 = settings: Homo sapiens, Colon Cancer, 48 h, read-out: GI% COLO 205
Method: as §1, §2

DU-145 = settings: Homo sapiens, Prostate, 48 h, read-out: GI% DU-145
Method: as §1, §2

EKVX = settings: Homo sapiens, Non-Small Cell Lung Cancer, 48 h, read-out: GI% EKVX
Method: as §1, §2

HCC-2998 = settings: Homo sapiens, Colon Cancer, 48 h, read-out: GI% HCC-2998
Method: as §1, §2

HCT-15 = settings: Homo sapiens, HCT-15, 48 h, Colon Cancer, read-out: GI% HCT-15
Method: as §1, §2

HOP-62 = settings: Homo sapiens, Non-Small Cell Lung Cancer, 48 h, read-out: GI% HOP-62
Method: as §1, §2

HT29 = settings: Homo sapiens, HT-29, 48 h, Colon Cancer, read-out: GI% HT29
Method: as §1, §2

LOX IMVI = settings: Homo sapiens, Melanoma, 48 h, read-out: GI% LOX IMVI
Method: as §1, §2

MCF7 = settings: Homo sapiens, Breast Cancer, 48 h, read-out: GI% MCF7
Method: as §1, §2

MDA-MB-231 = settings: Homo sapiens, Breast Cancer, 48 h, read-out: GI% MDA-MB-231
Method: as §1, §2

MDA-MB-435 = settings: Homo sapiens, Melanoma, 48 h, read-out: GI% MDA-MB-435
Method: as §1, §2

NCI-H322M = settings: Homo sapiens, Non-Small Cell Lung Cancer, 48 h, read-out: GI% NCI-H322M
Method: as §1, §2

OVCAR-3 = settings: Homo sapiens, OVCAR-3, 48 h, Ovarian Cancer, read-out: GI% OVCAR-3
Method: as §1, §2

OVCAR-4 = settings: Homo sapiens, Ovarian Cancer, 48 h, read-out: GI% OVCAR-4
Method: as §1, §2

OVCAR-5 = settings: Homo sapiens, Ovarian Cancer, 48 h, read-out: GI% OVCAR-5
Method: as §1, §2

OVCAR-8 = settings: Homo sapiens, Ovarian Cancer, 48 h, read-out: GI% OVCAR-8
Method: as §1, §2

RPMI-8226 = settings: Homo sapiens, RPMI-8226, 48 h, Leukemia, read-out: GI% RPMI-8226
Method: as §1, §2

RXF 393 = settings: Homo sapiens, Renal Cancer, 48 h, read-out: GI% RXF 393
Method: as §1, §2

SF-268 = settings: Homo sapiens, CNS Cancer, 48 h, read-out: GI% SF-268
Method: as §1, §2

SF-295 = settings: Homo sapiens, CNS Cancer, 48 h, read-out: GI% SF-295
Method: as §1, §2

SK-OV-3 = settings: Homo sapiens, Ovarian Cancer, 48 h, read-out: GI% SK-OV-3
Method: as §1, §2

SN12C = settings: Homo sapiens, Renal Cancer, 48 h, read-out: GI% SN12C
Method: as §1, §2

SNB-75 = settings: Homo sapiens, CNS Cancer, 48 h, read-out: GI% SNB-75
Method: as §1, §2

SR = settings: Homo sapiens, 48 h, Leukemia, read-out: GI% SR
Method: as §1, §2

T-47D = settings: Homo sapiens, T47D, 48 h, Breast Cancer, read-out: GI% T-47D
Method: as §1, §2

TK-10 = settings: Homo sapiens, Renal Cancer, 48 h, read-out: GI% TK-10
Method: as §1, §2

U251 = settings: Homo sapiens, U-251, CNS Cancer, 48 h, read-out: GI% U251
Method: as §1, §2

UACC-62 = settings: Homo sapiens, UACC-62, 48 h, Melanoma, read-out: GI% UACC-62
Method: as §1, §2

UO-31 = settings: Homo sapiens, Renal Cancer, 48 h, read-out: GI% UO-31
Method: as §1, §2

SMILES | inhibition at 10 µM (786-0) | inhibition at 10 µM (A549/ATCC) | inhibition at 10 µM (BT-549) | inhibition at 10 µM (CCRF-CEM) | inhibition at 10 µM (COLO 205) | inhibition at 10 µM (DU-145) | inhibition at 10 µM (EKVX) | inhibition at 10 µM (HCC-2998) | inhibition at 10 µM (HCT-15) | inhibition at 10 µM (HOP-62) | inhibition at 10 µM (HT29) | inhibition at 10 µM (LOX IMVI) | inhibition at 10 µM (MCF7) | inhibition at 10 µM (MDA-MB-231) | inhibition at 10 µM (MDA-MB-435) | inhibition at 10 µM (NCI-H322M) | inhibition at 10 µM (OVCAR-3) | inhibition at 10 µM (OVCAR-4) | inhibition at 10 µM (OVCAR-5) | inhibition at 10 µM (OVCAR-8) | also measured
Cc1nc(-c2ccc(F)cc2)ccc1NC(=O)Nc1cccc(C(F)(F)F)c1 [Compound 5a, 1-(6-(4-Fluorophenyl)-2-methylpyridin-3-yl)-3-(3-(trifluoromethyl)phenyl)urea] | < 10% | > 40% | < 10% | 25% | < 10% | 11% | 17% | < 10% | > 40% | 31% | > 40% | 37% | 30% | 28% | 19% | 15% | > 40% | 30% | < 10% | 29% | inhibition at 10 µM (RPMI-8226): > 40%; inhibition at 10 µM (RXF 393): < 10%; inhibition at 10 µM (SF-268): < 10%; inhibition at 10 µM (SF-295): 17%; inhibition at 10 µM (SK-OV-3): 13%; inhibition at 10 µM (SN12C): 26%; inhibition at 10 µM (SNB-75): < 10%; inhibition at 10 µM (SR): > 40%; inhibition at 10 µM (T-47D): > 40%; inhibition at 10 µM (TK-10): < 10%; inhibition at 10 µM (U251): 31%; inhibition at 10 µM (UACC-62): > 40%; inhibition at 10 µM (UO-31): 15%
CCOC(=O)c1ccc(NC(=O)Nc2ccc(-c3ccc(F)cc3)nc2C)cc1 [Compound 5c, Ethyl 4-(3-(6-(4-fluorophenyl)-2-methylpyridin-3-yl)ureido)benzoate] | < 10% | 25% | < 10% | < 10% | < 10% | < 10% | < 10% | < 10% | < 10% | < 10% | 18% | 24% | 20% | < 10% | < 10% | < 10% | < 10% | < 10% | < 10% | < 10% | inhibition at 10 µM (RPMI-8226): 13%; inhibition at 10 µM (RXF 393): < 10%; inhibition at 10 µM (SF-268): < 10%; inhibition at 10 µM (SF-295): < 10%; inhibition at 10 µM (SK-OV-3): < 10%; inhibition at 10 µM (SN12C): < 10%; inhibition at 10 µM (SNB-75): < 10%; inhibition at 10 µM (SR): 16%; inhibition at 10 µM (T-47D): < 10%; inhibition at 10 µM (TK-10): < 10%; inhibition at 10 µM (U251): < 10%; inhibition at 10 µM (UACC-62): 29%; inhibition at 10 µM (UO-31): < 10%
Cc1nc(-c2ccc(F)cc2)ccc1NC(=O)Nc1ccc2c(c1)OCO2 [Compound 5d, 1-(Benzo[d][1, 3]dioxol-5-yl)-3-(6-(4-fluorophenyl)-2-methylpyridin-3-yl)urea] | < 10% | 13% | < 10% | < 10% | < 10% | < 10% | < 10% | < 10% | < 10% | < 10% | 14% | 34% | < 10% | < 10% | < 10% | < 10% | < 10% | < 10% | < 10% | < 10% | inhibition at 10 µM (RPMI-8226): < 10%; inhibition at 10 µM (RXF 393): < 10%; inhibition at 10 µM (SF-268): < 10%; inhibition at 10 µM (SF-295): < 10%; inhibition at 10 µM (SK-OV-3): < 10%; inhibition at 10 µM (SN12C): < 10%; inhibition at 10 µM (SNB-75): < 10%; inhibition at 10 µM (SR): 11%; inhibition at 10 µM (T-47D): < 10%; inhibition at 10 µM (TK-10): < 10%; inhibition at 10 µM (U251): < 10%; inhibition at 10 µM (UACC-62): 20%; inhibition at 10 µM (UO-31): < 10%
Cc1nc(-c2ccc(Cl)cc2)ccc1NC(=O)Nc1cccc(C(F)(F)F)c1 [Compound 5e, 1-(6-(4-Chlorophenyl)-2-methylpyridin-3-yl)-3-(3-(trifluoromethyl)phenyl)urea] | < 10% | 10% | < 10% | 22% | < 10% | < 10% | < 10% | < 10% | 18% | < 10% | 25% | < 10% | 20% | < 10% | < 10% | < 10% | < 10% | < 10% | < 10% | < 10% | inhibition at 10 µM (RPMI-8226): 15%; inhibition at 10 µM (RXF 393): < 10%; inhibition at 10 µM (SF-268): < 10%; inhibition at 10 µM (SF-295): < 10%; inhibition at 10 µM (SK-OV-3): < 10%; inhibition at 10 µM (SN12C): < 10%; inhibition at 10 µM (SNB-75): < 10%; inhibition at 10 µM (SR): 41%; inhibition at 10 µM (T-47D): 13%; inhibition at 10 µM (TK-10): < 10%; inhibition at 10 µM (U251): 24%; inhibition at 10 µM (UACC-62): < 10%; inhibition at 10 µM (UO-31): < 10%
COc1ccc(NC(=O)Nc2ccc(-c3ccc(Cl)cc3)nc2C)cc1 [Compound 5f, 1-(6-(4-Chlorophenyl)-2-methylpyridin-3-yl)-3-(4-methoxyphenyl) urea] | < 10% | 25% | < 10% | 18% | < 10% | < 10% | < 10% | < 10% | < 10% | < 10% | 23% | 21% | 23% | < 10% | < 10% | < 10% | < 10% | < 10% | < 10% | < 10% | inhibition at 10 µM (RPMI-8226): 14%; inhibition at 10 µM (RXF 393): 21%; inhibition at 10 µM (SF-268): < 10%; inhibition at 10 µM (SF-295): < 10%; inhibition at 10 µM (SK-OV-3): < 10%; inhibition at 10 µM (SN12C): < 10%; inhibition at 10 µM (SNB-75): < 10%; inhibition at 10 µM (SR): 28%; inhibition at 10 µM (T-47D): < 10%; inhibition at 10 µM (TK-10): < 10%; inhibition at 10 µM (U251): < 10%; inhibition at 10 µM (UACC-62): 27%; inhibition at 10 µM (UO-31): < 10%
